# Data published in ChEMBL document CHEMBL3045429, “Exploration of antimicrobial potential of pyrazolo[3,4-b]pyridine scaffold bearing benzenesulfonamide and trifluoromethyl moieties” (2013).
# The source made the active and inactive calls. No cut-off for these calls is given here.
# Columns and labels:
# [1] = tested on: Bacillus subtilis; assay: Antibacterial activity against Bacillus subtilis MTCC 121 assessed as growth inhibition after 24 hr by agar well diffusion method; type: functional; details: MTCC 121, 24 h
# [2] = tested on: Pseudomonas aeruginosa; assay: microbe, parasite or virus in culture; details: MTCC 741, 24 h, read-out: DIZ
# Description: Antibacterial activity against Pseudomonas aeruginosa MTCC 741 assessed as growth inhibition at 4 mg/mL after 24 hr by agar well diffusion method
# [3] = tested on: Staphylococcus aureus; assay: Antibacterial activity against Staphylococcus aureus MTCC 96 assessed as growth inhibition at 4 mg/mL after 24 hr by agar well diffusion method; type: functional; details: MTCC 96, 24 h, read-out: DIZ
# [4] = tested on: Bacillus subtilis; assay: Antibacterial activity against Bacillus subtilis MTCC 121 assessed as growth inhibition at 4 mg/mL after 24 hr by agar well diffusion method; type: functional; details: MTCC 121, 24 h, read-out: DIZ
# [5] = tested on: Staphylococcus aureus; assay: Antibacterial activity against Staphylococcus aureus MTCC 96 assessed as growth inhibition after 24 hr by agar well diffusion method; type: functional; details: MTCC 96, 24 h
# [6] = tested on: Candida albicans; assay: Antifungal activity against Candida albicans MTCC 227 assessed as growth inhibition after 24 hr by agar well diffusion method; type: functional; details: MTCC 227, 24 h
# [7] = tested on: Saccharomyces cerevisiae; assay: Antifungal activity against Saccharomyces cerevisiae MTCC 170 assessed as growth inhibition after 24 hr by agar well diffusion method; type: functional; details: MTCC 170, 24 h
# [8] = tested on: Saccharomyces cerevisiae; assay: Antifungal activity against Saccharomyces cerevisiae MTCC 170 assessed as growth inhibition at 4 mg/mL after 24 hr by agar well diffusion method; type: functional; details: for zone of inhibition at 4000 µg/mL: MTCC 170, 24 h, read-out: DIZ
# [9] = tested on: Candida albicans; assay: Antifungal activity against Candida albicans MTCC 227 assessed as growth inhibition at 4 mg/mL after 24 hr by agar well diffusion method; type: functional; details: for zone of inhibition at 4000 µg/mL: MTCC 227, 24 h, read-out: DIZ
# [10] = tested on: Escherichia coli; assay: Antibacterial activity against Escherichia coli MTCC 1652 assessed as growth inhibition at 4 mg/mL after 24 hr by agar well diffusion method; type: functional, organism-based
SMILES,MIC [1],zone of inhibition at 4000 µg/mL [2],zone of inhibition at 4000 µg/mL [3],zone of inhibition at 4000 µg/mL [4],MIC [5],MIC [6],MIC [7],zone of inhibition at 4000 µg/mL [8],zone of inhibition at 4000 µg/mL [9],growth inhibition (GI) [10],growth inhibition (GI) [8],growth inhibition (GI) [9]
O=C(O)c1cn(C2CC2)c2cc(N3CCNCC3)c(F)cc2c1=O [CIPROFLOXACIN],5 µg/mL,22 mm,26.6 mm,24 mm,5 µg/mL,,,,,,,
Cc1ccc(-c2cc(C(F)(F)F)c3c(-c4ccccc4)nn(-c4ccc(S(N)(=O)=O)cc4)c3n2)cc1,64 µg/mL,,21.3 mm,20.3 mm,32 µg/mL,64 µg/mL,64 µg/mL,15.6 mm,16.3 mm,inactive,,
Cc1cc(C(F)(F)F)c2c(-c3ccccc3)nn(-c3ccc(S(N)(=O)=O)cc3)c2n1,64 µg/mL,,19.3 mm,20.3 mm,64 µg/mL,64 µg/mL,64 µg/mL,15.3 mm,16.3 mm,inactive,,
C[C@@H]1[C@H](O)[C@@H](C)/C=C/C=C/C=C/C=C/C=C/C=C/C=C/[C@H](O[C@@H]2O[C@H](C)[C@@H](O)[C@H](N)[C@@H]2O)C[C@@H]2O[C@](O)(C[C@@H](O)C[C@@H](O)[C@H](O)CC[C@@H](O)C[C@@H](O)CC(=O)O[C@H]1C)C[C@H](O)[C@H]2C(=O)O [AMPHOTERICIN B],,,,,,20 µg/mL,20 µg/mL,19.3 mm,16.6 mm,,,
Cc1ccc(-c2nn(-c3ccc(S(N)(=O)=O)cc3)c3nc(-c4ccc(F)cc4)cc(C(F)(F)F)c23)cc1,128 µg/mL,,13.6 mm,15.6 mm,> 256 µg/mL,,,,,inactive,inactive,inactive
NS(=O)(=O)c1ccc(-n2nc(-c3ccccc3)c3c(C(F)(F)F)cc(-c4ccc(Br)cc4)nc32)cc1,64 µg/mL,,18.3 mm,17.6 mm,64 µg/mL,> 256 µg/mL,256 µg/mL,14.6 mm,13.6 mm,inactive,,
NS(=O)(=O)c1ccc(-n2nc(-c3ccccc3)c3c(C(F)(F)F)cc(-c4ccc(F)cc4)nc32)cc1,64 µg/mL,,17.6 mm,19.6 mm,128 µg/mL,128 µg/mL,64 µg/mL,15.3 mm,14.6 mm,inactive,,
NS(=O)(=O)c1ccc(-n2nc(-c3ccccc3)c3c(C(F)(F)F)cc(-c4ccc5ccccc5c4)nc32)cc1,256 µg/mL,,13.6 mm,14.6 mm,256 µg/mL,,,,,inactive,inactive,inactive
NS(=O)(=O)c1ccc(-n2nc(-c3ccccc3)c3c(C(F)(F)F)cc(C(F)(F)F)nc32)cc1,32 µg/mL,,22.6 mm,21.6 mm,32 µg/mL,64 µg/mL,128 µg/mL,14.6 mm,15.6 mm,inactive,,
COc1ccc(-c2cc(C(F)(F)F)c3c(-c4ccccc4)nn(-c4ccc(S(N)(=O)=O)cc4)c3n2)cc1,32 µg/mL,,19.3 mm,21.6 mm,64 µg/mL,128 µg/mL,256 µg/mL,14.6 mm,15.6 mm,inactive,,
NS(=O)(=O)c1ccc(-n2nc(-c3ccccc3)c3c(C(F)(F)F)cc(-c4ccccc4)nc32)cc1,128 µg/mL,,18.6 mm,17 mm,64 µg/mL,64 µg/mL,64 µg/mL,16.3 mm,15.3 mm,inactive,,
Cc1ccc(-c2nn(-c3ccc(S(N)(=O)=O)cc3)c3nc(-c4ccc5ccccc5c4)cc(C(F)(F)F)c23)cc1,128 µg/mL,,15.6 mm,15.6 mm,128 µg/mL,32 µg/mL,32 µg/mL,15.6 mm,18.3 mm,inactive,,
Cc1ccc(-c2nn(-c3ccc(S(N)(=O)=O)cc3)c3nc(C(F)(F)F)cc(C(F)(F)F)c23)cc1,128 µg/mL,,15.6 mm,16.6 mm,128 µg/mL,,,,,inactive,inactive,inactive
NS(=O)(=O)c1ccc(-n2nc(-c3ccc(Cl)cc3)c3c(C(F)(F)F)cc(C(F)(F)F)nc32)cc1,128 µg/mL,,16.3 mm,15.6 mm,128 µg/mL,64 µg/mL,64 µg/mL,14.6 mm,16.3 mm,inactive,,
Cc1ccc(-c2nn(-c3ccc(S(N)(=O)=O)cc3)c3nc(C)cc(C(F)(F)F)c23)cc1,128 µg/mL,,15.3 mm,16.3 mm,128 µg/mL,,,,,inactive,inactive,inactive
COc1ccc(-c2cc(C(F)(F)F)c3c(-c4ccc(C)cc4)nn(-c4ccc(S(N)(=O)=O)cc4)c3n2)cc1,128 µg/mL,,14.6 mm,17.3 mm,256 µg/mL,,,,,inactive,inactive,inactive
Cc1cc(C(F)(F)F)c2c(-c3ccc(Cl)cc3)nn(-c3ccc(S(N)(=O)=O)cc3)c2n1,128 µg/mL,,18.6 mm,17.6 mm,64 µg/mL,,,,,inactive,inactive,inactive
